Measured values taken from patent publication US20030153618A1, “Treatment and prevention of herpes simplex infections” (priority 1999, published 2003).

Tests used:
Herpes simplex II virus = experiment: Back titration plaque assay: PFU counts at stated amounts of compound under test and arginine; assay type: cell-based, Herpes simplex II virus (BSC cells)
Experimental: The following experiments were conducted by back titration: Herpes simplex II virus from laboratory stocks was used. BSC cells were grown to confluence in Eagles medium with 15% fetal calf serum, 150 units per milliliter of penicillin and 100 micrograms per milliliter of streptomycin. The cultures were inoculated with 500 PFU of HS II. The virons were allowed to absorb for one hour at 25° C. The tissue cultures were then washed three times with sterile PBS to remove excess media and non-absorbed virons. The cells were then incubated at 37° C. until four-plus cytopathic effects were observed. The cells were then disrupted by slow freeze-thaw two times. The suspension was then clarified by slow speed centrifugation at 4° C. The supemanant suspension was then added to confluent BSC cultures. After one hour absorption, the cells were washed with PBS twice. The cells were overlaid in defined reagent (in triplicate) Eagles media in noble agar. The cells were then incubated at 37° C. until the plaques were easily counted, usually 40 t 72 hours. the cells were then washed two times with PBS and then fixed with 10% H2CO and a 2% sodium acetate. The cells were then stained in 0.1% crystal violet in ethanol. In the tables which follow the concentration of the compound to be tested, in micrograms per milliliter, is listed across the top of the table and the concentration of arginine in micrograms per milliliter is listed down the left side of the table, the count of plaque-forming units being shown in the matrix.

HSV, Type II = experiment: Direct plaque-forming unit (PFU) count in BSC cells in defined media with set lysine (or derivative):arginine ratio; assay type: cell-based; conditions: average of three tests
Experimental: Absorbed virons were absorbed in susceptible cells in chemically defined media and the number of plaques made were counted. (See Davis, B. D., et al., Microbiology, 2nd Ed., Harper & Row, 1973, Part V, and sources cited therein for procedural details and discussion of the plaque method.)
The cell line chosen was green monkey kidney cells (BSC) that have been passed greater than 41 times. […] The virons were added to a confluent lawn of BSC cells and allowed to absorb at 25° C. for one hour. The unabsorbed virons and the media were removed by washing three times in PBS. […] The control media contained a lysine/arginine ratio of 1:1. The plaques were counted when easily readable. Flasks are done in triplicate.

## CC(N)CCCC(N)C(=O)O (stereo not shown) [6-Methyl lysine]
Herpes simplex II virus; among the tested derivatives
  order of blocking the arginine molecule (rank of efficacy): third most efficacious
Herpes simplex II virus; compound 10 μg/ml, arginine 0 μg/ml
  P.F.U. Count: 0
Herpes simplex II virus; compound 10 μg/ml, arginine 2.5 μg/ml
  P.F.U. Count: 0
Herpes simplex II virus; compound 10 μg/ml, arginine 5.0 μg/ml
  P.F.U. Count: 0
Herpes simplex II virus; compound 10 μg/ml, arginine 7.5 μg/ml
  P.F.U. Count: 0
Herpes simplex II virus; compound 10 μg/ml, arginine 10 μg/ml
  P.F.U. Count: 4.0 × 10^3
Herpes simplex II virus; compound 10 μg/ml, arginine 15 μg/ml
  P.F.U. Count: 1.8 × 10^3
Herpes simplex II virus; compound 10 μg/ml, arginine 20 μg/ml
  P.F.U. Count: 2.8 × 10^6
Herpes simplex II virus; compound 10 μg/ml, arginine 25 μg/ml
  P.F.U. Count: 2.7 × 10^5
Herpes simplex II virus; compound 25 μg/ml, arginine 0 μg/ml
  P.F.U. Count: 0
Herpes simplex II virus; compound 25 μg/ml, arginine 2.5 μg/ml
  P.F.U. Count: 0
Herpes simplex II virus; compound 25 μg/ml, arginine 5.0 μg/ml
  P.F.U. Count: 0
Herpes simplex II virus; compound 25 μg/ml, arginine 7.5 μg/ml
  P.F.U. Count: 0
Herpes simplex II virus; compound 25 μg/ml, arginine 10 μg/ml
  P.F.U. Count: 2.1 × 10^3
Herpes simplex II virus; compound 25 μg/ml, arginine 15 μg/ml
  P.F.U. Count: 2.1 × 10^3
Herpes simplex II virus; compound 25 μg/ml, arginine 20 μg/ml
  P.F.U. Count: 2.4 × 10^5
Herpes simplex II virus; compound 25 μg/ml, arginine 25 μg/ml
  P.F.U. Count: 2.9 × 10^5
Herpes simplex II virus; compound 50 μg/ml, arginine 0 μg/ml
  P.F.U. Count: 0
Herpes simplex II virus; compound 50 μg/ml, arginine 2.5 μg/ml
  P.F.U. Count: 0
Herpes simplex II virus; compound 50 μg/ml, arginine 5.0 μg/ml
  P.F.U. Count: 0
Herpes simplex II virus; compound 50 μg/ml, arginine 7.5 μg/ml
  P.F.U. Count: 0
Herpes simplex II virus; compound 50 μg/ml, arginine 10 μg/ml
  P.F.U. Count: 0
Herpes simplex II virus; compound 50 μg/ml, arginine 15 μg/ml
  P.F.U. Count: 1.7 × 10^3
Herpes simplex II virus; compound 50 μg/ml, arginine 20 μg/ml
  P.F.U. Count: 1.7 × 10^5
Herpes simplex II virus; compound 50 μg/ml, arginine 25 μg/ml
  P.F.U. Count: 2.0 × 10^5
Herpes simplex II virus; compound 100 μg/ml, arginine 0 μg/ml
  P.F.U. Count: 0
Herpes simplex II virus; compound 100 μg/ml, arginine 2.5 μg/ml
  P.F.U. Count: 0
Herpes simplex II virus; compound 100 μg/ml, arginine 5.0 μg/ml
  P.F.U. Count: 0
Herpes simplex II virus; compound 100 μg/ml, arginine 7.5 μg/ml
  P.F.U. Count: 0
Herpes simplex II virus; compound 100 μg/ml, arginine 10 μg/ml
  P.F.U. Count: 0
Herpes simplex II virus; compound 100 μg/ml, arginine 15 μg/ml
  P.F.U. Count: 0
Herpes simplex II virus; compound 100 μg/ml, arginine 20 μg/ml
  P.F.U. Count: 6.4 × 10^4
Herpes simplex II virus; compound 100 μg/ml, arginine 25 μg/ml
  P.F.U. Count: 5.8 × 10^4
Herpes simplex II virus; compound 200 μg/ml, arginine 0 μg/ml
  P.F.U. Count: 0
Herpes simplex II virus; compound 200 μg/ml, arginine 2.5 μg/ml
  P.F.U. Count: 0
Herpes simplex II virus; compound 200 μg/ml, arginine 5.0 μg/ml
  P.F.U. Count: 0
Herpes simplex II virus; compound 200 μg/ml, arginine 7.5 μg/ml
  P.F.U. Count: 0
Herpes simplex II virus; compound 200 μg/ml, arginine 10 μg/ml
  P.F.U. Count: 0
Herpes simplex II virus; compound 200 μg/ml, arginine 15 μg/ml
  P.F.U. Count: 0
Herpes simplex II virus; compound 200 μg/ml, arginine 20 μg/ml
  P.F.U. Count: 6.9 × 10^4
Herpes simplex II virus; compound 200 μg/ml, arginine 25 μg/ml
  P.F.U. Count: 4.7 × 10^4
Herpes simplex II virus; compound 300 μg/ml, arginine 0 μg/ml
  P.F.U. Count: 0
Herpes simplex II virus; compound 300 μg/ml, arginine 2.5 μg/ml
  P.F.U. Count: 0
Herpes simplex II virus; compound 300 μg/ml, arginine 5.0 μg/ml
  P.F.U. Count: 0
Herpes simplex II virus; compound 300 μg/ml, arginine 7.5 μg/ml
  P.F.U. Count: 0
Herpes simplex II virus; compound 300 μg/ml, arginine 10 μg/ml
  P.F.U. Count: 0
Herpes simplex II virus; compound 300 μg/ml, arginine 15 μg/ml
  P.F.U. Count: 0
Herpes simplex II virus; compound 300 μg/ml, arginine 20 μg/ml
  P.F.U. Count: 5.0 × 10^3
Herpes simplex II virus; compound 300 μg/ml, arginine 25 μg/ml
  P.F.U. Count: 4.0 × 10^4
Herpes simplex II virus; compound 400 μg/ml, arginine 0 μg/ml
  P.F.U. Count: 0
Herpes simplex II virus; compound 400 μg/ml, arginine 2.5 μg/ml
  P.F.U. Count: 0
Herpes simplex II virus; compound 400 μg/ml, arginine 5.0 μg/ml
  P.F.U. Count: 0
Herpes simplex II virus; compound 400 μg/ml, arginine 7.5 μg/ml
  P.F.U. Count: 0
Herpes simplex II virus; compound 400 μg/ml, arginine 10 μg/ml
  P.F.U. Count: 0
Herpes simplex II virus; compound 400 μg/ml, arginine 15 μg/ml
  P.F.U. Count: 0
Herpes simplex II virus; compound 400 μg/ml, arginine 20 μg/ml
  P.F.U. Count: 690
Herpes simplex II virus; compound 400 μg/ml, arginine 25 μg/ml
  P.F.U. Count: 3.9 × 10^3
Herpes simplex II virus; compound 500 μg/ml, arginine 0 μg/ml
  P.F.U. Count: 0
Herpes simplex II virus; compound 500 μg/ml, arginine 2.5 μg/ml
  P.F.U. Count: 0
Herpes simplex II virus; compound 500 μg/ml, arginine 5.0 μg/ml
  P.F.U. Count: 0
Herpes simplex II virus; compound 500 μg/ml, arginine 7.5 μg/ml
  P.F.U. Count: 0
Herpes simplex II virus; compound 500 μg/ml, arginine 10 μg/ml
  P.F.U. Count: 0
Herpes simplex II virus; compound 500 μg/ml, arginine 15 μg/ml
  P.F.U. Count: 0
Herpes simplex II virus; compound 500 μg/ml, arginine 20 μg/ml
  P.F.U. Count: 56
Herpes simplex II virus; compound 500 μg/ml, arginine 25 μg/ml
  P.F.U. Count: 3.71 × 10^3
HSV, Type II; Compound Ratio to Arginine 10:1
  P.F.U. Count: <5
HSV, Type II; Compound Ratio to Arginine 100:1
  P.F.U. Count: <5
